The source of these data is article PMC9684503 (Communications Biology, 2022).

By IC50 is commonly meant the concentration that gives 50% inhibition. A lower IC50 goes with greater potency in that assay.

Values joined by “and” are separate entries in the source; they are usually repeats but may differ in a detail not shown here. Equal values may be shown once. Where a name gives a salt, the structure may show the parent alone. Read-outs that look alike come from different tables or passages of the source. Some results are limits rather than exact numbers.

In one assay the test system is rat VMAT2 variants. The conditions noted are these: cited from earlier work.
A further assay addresses rat VMAT2 (Rattus norvegicus, UniProt Q01827). The assay can be described thus: FFN206 uptake assay in transfected Hek293 cells. Particulars: for VMAT2-specific FFN206 uptake relative to DMSO (=1), replicate samples: Fig. 2a source data, 25 μM compound.
The target of assay [1] is T1, VMAT2 (Rattus norvegicus, UniProt Q01827). Particulars: 50 µM.
Method: (§1) We preincubated cells expressing VMAT2 with 50 μM compounds and measured [^3H]-DTBZ binding (5 nM) to the sample (Fig. 3a). […] Hek293 cells were grown and transfected with pcDNA3.1 VMAT2-His as described above. Two days after transfection, cells were harvested, washed and transferred to 96 well MultiScreen FB filter plates (Millipore). […] Cells were washed 3 times with ice cold PBS and 50 µl Ultima Gold LLL (PerkinElmer) was added to each well. […] After a 20 min incubation at 37 °C, cells were washed and [^3H] scintillation counting was performed as described above.
The target in a further assay is T2, rat VMAT2-His (Rattus norvegicus, UniProt Q01827).
T2 construct: The ORF of rat VMAT2 was subcloned into a pFastBac vector; His; made in house; host or cells: Sf9 insect cells (baculovirus)
The assay can be described thus: Differential scanning fluorimetry (DSF) with CPM dye: change of melting temperature of purified VMAT2. It is filed as binding. Particulars: for ΔTm at 12 µM: compound 0,12 µM; for ΔTm at 37 µM: compound 0,37 µM; for ΔTm at 10 µM: compound 10 µM; for ΔTm at 30 µM: compound 30 µM; for ΔTm at 90 µM: compound 90 µM; for ΔTm at 270 µM: compound 270 µM. The protocol: To screen purified VMAT2 by DSF we expressed the rat VMAT2 protein, as VMAT2-His, in SF9 insect cells using the baculovirus expression system. The transporter was solubilized and purified in n-Dodecyl-β-D-maltoside (DDM)/cholesterol hemisuccinate (CHS) micelles by immobilized metal affinity chromatography (IMAC) and size exclusion chromatography (SEC). […] Screening was performed using DSF and the thiol-reactive dye 7-diethylamino-3-(4-maleimidophenyl)-4-methylcoumarin (CPM), an approach that monitors changes to the protein melting temperature (Tm) upon compound binding. Using CPM or other dyes, DSF-based assays have successfully been used in molecular-based screenings[34],[35]. […] DSF screening was performed in 384 well plates using the thiol-sensing dye 7-diethylamino-3-(4-maleimidophenyl)-4-methylcoumarin (CPM) (Merck). […] Protein melting curves were determined using a LightCycler 480 ii RT-PCR system (Roche), with a temperature ramp increasing from 25 to 95 °C at a rate of 2 °C/min. Data analysis was performed using an in-house software that automatically determines the protein midpoint melting temperature (Tm) based on the second derivative of the melting curves or using the HTSDSF explorer as described in ref. [58]. […] 6 μl of this mix was dispensed to each well of 384 well plates using a Multidrop™ Combi Reagent Dispenser (Thermo Scientific). […] All initial hits were then subjected to an initial validation in triplicates with a compound concentration of 200 μM and a ΔTm > 5× the standard deviation (SD) cut off. […] Processing of the data from the primary screening and the concentration-dependent validation was performed as reported.
(In general: DSF heats the sample and reads unfolding from a dye or from intrinsic fluorescence.)

In assay [2] the target is T1, VMAT2. Description: [3H]-DTBZ competition assay in Hek293 cells expressing VMAT2.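 Also: HEK293 cells transfected with VMAT2, pretreated 30 min with compound, then given 5 nM [3H]-DTBZ for 20 min at 37 °C, bound label read by scintillation counting.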 The conditions noted are these: 50 μM compound.
Method: as §1
Setting [3] is: Table 1, DSF screening, mean ± SD of triplicates.
Setting [4] is: Table S2 dose response, read-out: ΔTm.
[5] abbreviates: Table S2 dose response, compound 1,11 µM, read-out: ΔTm.
Where [6] appears, read: Table S2 dose response, compound 3,33 µM, read-out: ΔTm.

T1 sequence (Q01827 whole entry): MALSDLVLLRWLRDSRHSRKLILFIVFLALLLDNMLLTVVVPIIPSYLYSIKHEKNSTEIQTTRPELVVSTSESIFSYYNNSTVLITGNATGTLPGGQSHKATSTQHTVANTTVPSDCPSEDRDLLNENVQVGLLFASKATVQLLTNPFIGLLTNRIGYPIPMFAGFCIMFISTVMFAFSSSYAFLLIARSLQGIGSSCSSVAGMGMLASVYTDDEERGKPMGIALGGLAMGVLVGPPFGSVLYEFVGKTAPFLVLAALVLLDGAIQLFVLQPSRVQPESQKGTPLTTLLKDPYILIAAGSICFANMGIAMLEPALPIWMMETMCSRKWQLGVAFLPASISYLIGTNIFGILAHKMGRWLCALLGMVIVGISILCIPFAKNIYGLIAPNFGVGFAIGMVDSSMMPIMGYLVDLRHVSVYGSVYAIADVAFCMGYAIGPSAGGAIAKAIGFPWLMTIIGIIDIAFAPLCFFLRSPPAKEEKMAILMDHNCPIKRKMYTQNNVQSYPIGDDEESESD
Sequence of rat VMAT2 (Q01827 whole entry): as above
T2 sequence (Q01827 whole entry): as above

Consider [3H]‐tetrabenazine, for which, in the assay on rat VMAT2 variants, the “[3H]-tetrabenazine binding” value is reported as “no TBZ binding”, the “[3H]-tetrabenazine binding: reduction” value is given as more than 90% and the “[3H]-tetrabenazine binding: reduction in binding” value is reported as 50%. In addition, the “[3H]-tetrabenazine binding” value in the assay on rat VMAT2 variants (variant E313D, ref [3, 4]) is “no binding”.
Turning to `COc1ccc(CN2CCN(C(c3ccc(F)cc3)c3ccc(F)cc3)CC2)c(OC)c1OC` [Lomerizine, Lomerizine hydrochloride], at rat VMAT2, the half-inhibitory concentration (IC50) is 3900 ± 1690 nM; the “VMAT2-specific FFN206 uptake relative to DMSO (=1), replicate samples” value is 0.1198 and 0.07933 and 0.1667 and 0.07626. Also, the activity on VMAT2 [1] (hek293 cells) worked out at 113 ± 23.2%. For the same compound, the ΔTm on rat VMAT2-His (setting [3]) was −7.51 ± 0.04 oC. Also, on rat VMAT2-His (setting [4]), the ΔTm at 12 µM is -0.81 °C, the ΔTm at 37 µM is -0.99 °C, the ΔTm at 10 µM is -2.21 °C and the ΔTm at 30 µM is -1.43 °C. Also, at rat VMAT2-His (setting [4]), the ΔTm at 90 µM was -2.04 °C and the ΔTm at 270 µM is -5.36 °C. Further, the ΔTm at 11 µM at rat VMAT2-His (setting [5]) is -1.46 °C. Further, on rat VMAT2-His (setting [6]), the ΔTm at 33 µM was -1.47 °C. Moreover, on VMAT2 [2], the “effect on [3H]-DTBZ binding compared with DMSO control (one-way ANOVA, p < 0.001)” value is “no statistically significant effect”.
For `CC(C)n1c(/C=C/C(O)CC(O)CC(=O)O)c(-c2ccc(F)cc2)c2ccccc21` (stereo not drawn) [Fluvastatin, Fluvastatin sodium salt], on rat VMAT2, the “VMAT2-specific FFN206 uptake relative to DMSO (=1), replicate samples” value was 0.09585 and -0.01946 and 0.03446. Also, the activity on VMAT2 [1] (hek293 cells) was found to be 80.2 ± 34.8%. Moreover, the ΔTm on rat VMAT2-His (setting [3]) amounted to 4.98 ± 0.17 oC. Moreover, at rat VMAT2-His (setting [4]), the ΔTm at 12 µM is 0.62 °C, the ΔTm at 37 µM is 0.66 °C, the ΔTm at 10 µM turned out to be 0.87 °C and the ΔTm at 30 µM is 1.05 °C. Moreover, at rat VMAT2-His (setting [4]), the ΔTm at 90 µM was 1.39 °C and the ΔTm at 270 µM was 2.74 °C. At rat VMAT2-His (setting [5]), the ΔTm at 11 µM turned out to be 0.71 °C. For the same compound, the ΔTm at 33 µM on rat VMAT2-His (setting [6]) is 0.66 °C. Moreover, the “effect on [3H]-DTBZ binding compared with DMSO control (one-way ANOVA, p < 0.001)” value at VMAT2 [2] is recorded as “no statistically significant effect”.
On to `CCc1cc2c(cc1CC)CC(NC[C@H](O)c1ccc(O)c3[nH]c(=O)ccc13)C2` [Indacaterol], for which the IC50 against rat VMAT2 is 372 ± 195 nM. Besides, the “FFN206 uptake relative to no compound (=1), replicate samples” value (shortened to “FFN206 uptake relative to no compound”) was 1.046 and 0.9873 and 0.9954 and 1.047 at rat VMAT2 (Fig. 2b/2c source data, compound 0.0152 μM, listed as Indacterol); 0.9052 and 0.9503 and 0.5975 and 0.7395 at rat VMAT2 (Fig. 2b/2c source data, compound 0.1372 μM, listed as Indacterol); 0.655 and 0.7802 and 0.5475 and 0.5896 on rat VMAT2 (Fig. 2b/2c source data, compound 0.4115 μM, listed as Indacterol); 0.389 and 0.3824 and 0.2984 and 0.2513 on rat VMAT2 (Fig. 2b/2c source data, compound 1.2346 μM, listed as Indacterol); 0.2198 and 0.2721 and 0.1271 and 0.01615 on rat VMAT2 (Fig. 2b/2c source data, compound 3.7037 μM, listed as Indacterol); 0.3236 and 0.15 and 0.08791 and -0.0508 on rat VMAT2 (Fig. 2b/2c source data, compound 11.1111 μM, listed as Indacterol). Moreover, the “FFN206 uptake relative to no compound” value at rat VMAT2 (Fig. 2b/2c source data, compound 100.0000 μM, listed as Indacterol) was 0.1623 and 0.1126 and 0.06583 and 0.01394; on rat VMAT2 (Fig. 2c source data, compound 0.0017 μM, listed as Indacterol), 0.9404 and 1.104 and 0.8827 and 0.8866. Besides, at VMAT2 [1] (hek293 cells), the activity came out at 31.6 ± 4.76%. Moreover, the ΔTm at rat VMAT2-His (setting [3]) is −1.26 ± 0.15 oC. The “effect on [3H]-DTBZ binding compared with DMSO control (one-way ANOVA, p < 0.001)” value at VMAT2 [2] is reported as “statistically significantly effect”.
Regarding `COc1ccccc1OCCNCC(O)COc1cccc2[nH]c3ccccc3c12` (stereo not drawn) [Carvedilol], the IC50 on rat VMAT2 turned out to be 185 ± 157 nM. Further, the “FFN206 uptake relative to no compound” value was 0.766 and 0.8971 and 0.7075 and 0.9947 on rat VMAT2 (Fig. 2b/2c source data, compound 0.0152 μM, listed as Carvediol); 0.4929 and 0.5853 and 0.5773 and 0.7378 at rat VMAT2 (Fig. 2b/2c source data, compound 0.1372 μM, listed as Carvediol); 0.3687 and 0.2376 and 0.3168 and 0.3398 on rat VMAT2 (Fig. 2b/2c source data, compound 0.4115 μM, listed as Carvediol); 0.1087 and 0.07344 on rat VMAT2 (Fig. 2b/2c source data, compound 1.2346 μM, listed as Carvediol); 0.1063 and 0.05759 and 0.1334 and 0.2157 on rat VMAT2 (Fig. 2b/2c source data, compound 3.7037 μM, listed as Carvediol); 0.1084 and -0.01428 and 0.1171 and 0.3099 on rat VMAT2 (Fig. 2b/2c source data, compound 11.1111 μM, listed as Carvediol). Besides, the “FFN206 uptake relative to no compound” value at rat VMAT2 (Fig. 2b/2c source data, compound 100.0000 μM, listed as Carvediol) is -0.01159 and -0.1032 and -0.03855; on rat VMAT2 (Fig. 2c source data, compound 0.0017 μM, listed as Carvediol), 0.7452 and 0.9945 and 0.9725 and 0.9441. Also, the activity at VMAT2 [1] (hek293 cells) turned out to be 3.22 ± 3.37%. Further, on rat VMAT2-His (setting [3]), the ΔTm is on record as −2.54 ± 0.19 oC. Moreover, on VMAT2 [2], the “effect on [3H]-DTBZ binding compared with DMSO control (one-way ANOVA, p < 0.001)” value is reported as “statistically significantly effect”.
Turning to `COc1ccc(CC(C)(C)NC[C@H](O)c2cc(O)cc3c2OCC(=O)N3)cc1` [Olodaterol], at rat VMAT2, the IC50 worked out at 4750 ± 1360 nM. In addition, the “FFN206 uptake relative to no compound” value is 1.037 and 1.016 and 1.038 and 1.078 on rat VMAT2 (Fig. 2b/2c source data, compound 0.0152 μM, listed as Oldaterol); 1.061 and 1.023 and 1.068 and 1.18 at rat VMAT2 (Fig. 2b/2c source data, compound 0.1372 μM, listed as Oldaterol); 0.9896 and 1.059 and 0.9994 and 0.9917 on rat VMAT2 (Fig. 2b/2c source data, compound 0.4115 μM, listed as Oldaterol); 0.8954 and 0.9111 and 0.8127 and 1.136 at rat VMAT2 (Fig. 2b/2c source data, compound 1.2346 μM, listed as Oldaterol); 0.4411 and 0.5591 and 0.475 and 0.4566 at rat VMAT2 (Fig. 2b/2c source data, compound 3.7037 μM, listed as Oldaterol); 0.3412 and 0.3104 and 0.1707 and 0.3679 on rat VMAT2 (Fig. 2b/2c source data, compound 11.1111 μM, listed as Oldaterol). Moreover, the “FFN206 uptake relative to no compound” value is 0.0752 and 0.06166 and -0.04341 and -0.00625 on rat VMAT2 (Fig. 2b/2c source data, compound 100.0000 μM, listed as Oldaterol); 1.069 and 1.105 and 1.094 and 1.258 on rat VMAT2 (Fig. 2c source data, compound 0.0017 μM, listed as Oldaterol). Moreover, at VMAT2 [1] (hek293 cells), the activity was 95.6 ± 18.6%. In addition, the ΔTm at rat VMAT2-His (setting [3]) worked out at 1.09 ± 0.08 oC. Moreover, the “effect on [3H]-DTBZ binding compared with DMSO control (one-way ANOVA, p < 0.001)” value at VMAT2 [2] is on record as “no statistically significant effect”.
On to `OC(CCN1CCCCC1)(c1ccccc1)C1CC2C=CC1C2` (stereo not drawn) [Biperiden, Biperiden hydrochloride], for which the “VMAT2-specific FFN206 uptake relative to DMSO (=1), replicate samples” value on rat VMAT2 was 0.4909 and 0.5029 and 0.6058 and 0.5946. Moreover, at rat VMAT2 (HEK293, read-out: inhibitory effect on VMAT2 activity), the inhibition at 25 µM is not above 50%. The activity on VMAT2 [1] came to 79.9 ± 19.1%. In addition, on rat VMAT2-His (setting [3]), the ΔTm amounted to 1.32 ± 0.22 oC. At rat VMAT2-His (setting [4]), the ΔTm at 12 µM was 0.2 °C, the ΔTm at 37 µM stood at 0.33 °C, the ΔTm at 10 µM was 1.11 °C and the ΔTm at 30 µM was found to be 1.6 °C. Further, at rat VMAT2-His (setting [4]), the ΔTm at 90 µM was found to be 0.9 °C and the ΔTm at 270 µM is 2.12 °C. For the same compound, the ΔTm at rat VMAT2-His (setting [5]) came out at 0.45 °C. Besides, the ΔTm at rat VMAT2-His (setting [6]) is 0.56 °C. Besides, the “effect on [3H]-DTBZ binding compared with DMSO control (one-way ANOVA, p < 0.001)” value on VMAT2 [2] is on record as “no statistically significant effect”.
